Patent publication US10336732B2, “1-heterocyclyl isochromanyl compounds and analogs for treating CNS disorders” (Sunovion Pharmaceuticals Inc., priority 2015, dated 2019)

The compounds below were run on mice (assay: Neuropharmacological assay (SmartCube), behavioral signature of compound-treated mice). Details: i.p. 15 min before behavioral test, most efficacious dose(s) of 3 doses.
Assay type: in vivo
Method in brief: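 Read-out is an automated video-based behavioral signature, scored as per-class probabilities (e.g., anxiolytic, antidepressant) against reference compounds. Dosing was i.p. at three doses, 15 min pre-test, in NMP, polyethylene glycol and propylene glycol. Values shown are from the most efficacious dose(s).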

SMILES | AD: ADHD (probability that behavioral signature matches class) | AG: analgesic (probability that behavioral signature matches class) | AX: anxiolytic (probability that behavioral signature matches class) | CE: cognitive enhancer (probability that behavioral signature matches class) | DP: anti-depressant (probability that behavioral signature matches class) | HA: hallucinogen (probability that behavioral signature matches class) | MS: mood stabilizer (probability that behavioral signature matches class) | PS: anti-psychotic (probability that behavioral signature matches class) | SD: sedative hypnotic (probability that behavioral signature matches class) | UN: uncharacterized CNS activity (probability that behavioral signature matches class)
c1ccc2c(c1)CCO[C@@H]2[C@@H]1CCN1 [Compound I-79, (S)-2-((S)-isochroman-1-yl)azetidine] | ++ (5% ≤ ++ <25%) | ++ (5% ≤ ++ <25%) | +++ (25% ≤ +++ <50%) | ++ (5% ≤ ++ <25%) | ++ (5% ≤ ++ <25%) | + (LOQ ≤ + <5%) | ++ (5% ≤ ++ <25%) | +++ (25% ≤ +++ <50%) | + (LOQ ≤ + <5%) | + (LOQ ≤ + <5%)
c1ccc(-c2ccc3c(c2)CCO[C@@H]3[C@@H]2CCCN2)nc1 [Compound I-57, 2-((S)-1-((S)-pyrrolidin-2-yl)isochroman-6-yl)pyridine] | + (LOQ ≤ + <5%) | + (LOQ ≤ + <5%) | + (LOQ ≤ + <5%) | + (LOQ ≤ + <5%) | + (LOQ ≤ + <5%) | + (LOQ ≤ + <5%) | + (LOQ ≤ + <5%) | + (LOQ ≤ + <5%) | + (LOQ ≤ + <5%) | + (LOQ ≤ + <5%)
Fc1cccc2c1CCO[C@H]2[C@@H]1CCCN1 [Compound I-13, (S)-2-((R)-5-fluoroisochroman-1-yl)pyrrolidine] | + (LOQ ≤ + <5%) | ++ (5% ≤ ++ <25%) | ++ (5% ≤ ++ <25%) | ++ (5% ≤ ++ <25%) | +++ (25% ≤ +++ <50%) | + (LOQ ≤ + <5%) | ++ (5% ≤ ++ <25%) | ++++ (50% ≤ ++++) | + (LOQ ≤ + <5%) | ++ (5% ≤ ++ <25%)
Fc1ccc2c(c1)CO[C@H]2[C@@H]1CCCN1 [Compound I-119, (S)-2-((R)-5-fluoro-1,3-dihydroisobenzofuran-1-yl)pyrrolidine] | + (LOQ ≤ + <5%) | +++ (25% ≤ +++ <50%) | ++ (5% ≤ ++ <25%) | ++ (5% ≤ ++ <25%) | ++ (5% ≤ ++ <25%) | + (LOQ ≤ + <5%) | + (LOQ ≤ + <5%) | +++ (25% ≤ +++ <50%) | + (LOQ ≤ + <5%) | + (LOQ ≤ + <5%)
Fc1ccc2c(c1)[C@@H]([C@@H]1CCCN1)OCC2 [Compound I-6, (2S)-2-((S)-7-fluoroisochroman-1-yl)pyrrolidine] | + (LOQ ≤ + <5%) | + (LOQ ≤ + <5%) | ++ (5% ≤ ++ <25%) | + (LOQ ≤ + <5%) | ++ (5% ≤ ++ <25%) | + (LOQ ≤ + <5%) | + (LOQ ≤ + <5%) | ++ (5% ≤ ++ <25%) | + (LOQ ≤ + <5%) | +++ (25% ≤ +++ <50%)
FC1(F)CN[C@H]([C@H]2OCCc3ccccc32)C1 [Compound I-63, (S)-4,4-difluoro-2-((S)-isochroman-1-yl)pyrrolidine] | + (LOQ ≤ + <5%) | + (LOQ ≤ + <5%) | + (LOQ ≤ + <5%) | + (LOQ ≤ + <5%) | + (LOQ ≤ + <5%) | + (LOQ ≤ + <5%) | + (LOQ ≤ + <5%) | + (LOQ ≤ + <5%) | + (LOQ ≤ + <5%) | + (LOQ ≤ + <5%)
Cc1cccc2c1[C@H]([C@@H]1CCCN1)OCCC2 [Compound I-102, (S)-2-((R)-9-methyl-1,3,4,5-tetrahydrobenzo[c]oxepin-1-yl)pyrrolidine] | + (LOQ ≤ + <5%) | ++ (5% ≤ ++ <25%) | +++ (25% ≤ +++ <50%) | ++ (5% ≤ ++ <25%) | ++ (5% ≤ ++ <25%) | + (LOQ ≤ + <5%) | ++ (5% ≤ ++ <25%) | ++ (5% ≤ ++ <25%) | + (LOQ ≤ + <5%) | + (LOQ ≤ + <5%)

Same assay, conditions: i.p. 15 min before behavioral test, most efficacious dose(s) of 3 doses

SMILES | XG: anxiogenic (probability that behavioral signature matches class)
c1ccc2c(c1)CCO[C@@H]2[C@@H]1CCN1 [Compound I-79, (S)-2-((S)-isochroman-1-yl)azetidine] | + (LOQ ≤ + <5%)
c1ccc(-c2ccc3c(c2)CCO[C@@H]3[C@@H]2CCCN2)nc1 [Compound I-57, 2-((S)-1-((S)-pyrrolidin-2-yl)isochroman-6-yl)pyridine] | + (LOQ ≤ + <5%)
Fc1cccc2c1CCO[C@H]2[C@@H]1CCCN1 [Compound I-13, (S)-2-((R)-5-fluoroisochroman-1-yl)pyrrolidine] | + (LOQ ≤ + <5%)
Fc1ccc2c(c1)CO[C@H]2[C@@H]1CCCN1 [Compound I-119, (S)-2-((R)-5-fluoro-1,3-dihydroisobenzofuran-1-yl)pyrrolidine] | + (LOQ ≤ + <5%)
Fc1ccc2c(c1)[C@@H]([C@@H]1CCCN1)OCC2 [Compound I-6, (2S)-2-((S)-7-fluoroisochroman-1-yl)pyrrolidine] | + (LOQ ≤ + <5%)
FC1(F)CN[C@H]([C@H]2OCCc3ccccc32)C1 [Compound I-63, (S)-4,4-difluoro-2-((S)-isochroman-1-yl)pyrrolidine] | + (LOQ ≤ + <5%)
Cc1cccc2c1[C@H]([C@@H]1CCCN1)OCCC2 [Compound I-102, (S)-2-((R)-9-methyl-1,3,4,5-tetrahydrobenzo[c]oxepin-1-yl)pyrrolidine] | + (LOQ ≤ + <5%)
